Values of other authors as cited in US8536091B2, “System for protection of plants from pathogens using alkamides” (priority 2008, dated 2013).

System: microbial plant pathogens, including bacteria and fungi
Settings: in the absence of plants; relatively high levels

Q: For `C/C=C/C=C\CC/C=C/C(=O)NCC(C)C` [affinin, N-isobutyl-deca-2E,6Z,8E-trieneamide], which “in vitro growth inhibition of microbial plant pathogens” value is on record?
A: Its value is “inhibit the growth of some microbial plant pathogens”.
